Experiments:
[1] = system: non-small cell lung cancer cells HOP-62; assay: XTT cell proliferation assay, HOP-62; format: cell-based, human; details: 5 days incubation, read-out: Antiproliferative activity, NSCLC HOP-62
Description: [The procedure below names another cell line; the source lists this cell line under the same test.] (§1) Exemplary compounds 1-8 were tested for anti-cancer activity in vitro using human renal cancer cells (ACHN and CAK-1), human pancreatic cells (BXPC3 and SU-86-86), human prostate cancer cell (DU14), human colon carcinoma cells (HT-29 and KM-12), leukemia cells (HL60), brain cancer/tumour cells (SK-A-AS, U87-MG), and human non-small cell lung cancer cells (H460). Compounds 1-8 are the specific embodiments of Formula (I) and Formula (IV) as described above in this application.
(§2) The cells were maintained as a monolayer in a growth medium; McCoy's 5A modified medium (Sigma, St. Louis, Mo.), supplemented with 2 mM L-glutamine (Gibco, Grand Island, N.Y.), 10% fetal bovine serum (FBS) (Multicell, WISENT Inc. St-Bruno, QC), antibiotic-antimycotic (Multicell), at 37° C. in a 5% CO2-humidified incubator. Cells were transferred onto 150 mm tissue culture plates and grown until sub-confluency (70-80%) prior to their use. The in vitro antiproliferative activity of compounds was evaluated by incubating the cells with varying concentrations of exemplary compounds as shown in Table 1 for 5 days. The efficacy of these compounds in this cell proliferation assay was measured based in the ability of live cells to reduce the tetrazolium salt XTT to orange colored compounds of formazan (XTT cell proliferation kit IT, Roche Applied Science, Montreal, QC).

Glioblastoma (U87-MG) = Glioblastoma (U87-MG) xenograft model; format: in vivo, CD-1 female nude mice; details: vs vehicle-treated control, FIG. 7
Description: (§3) The ability of compound 1 to inhibit colon tumour growth in vivo was tested as follows. CD-1 female nude mice (7 mice per treatment group, 6-7 weeks) were injected […] with human colon adenocarcinoma cells HT-29 cells (3×10^6 cells in 0.1 ml PBS). Treatment of the mice with vehicle or 50 mg/kg/d of […] was initiated 5 days post-inoculation (size of tumours=20-40 mm^3) for 7-day cycles of five days followed by a 2 day break for 5 weeks. The size of the tumours was measured over the course of the experiment using calipers, and the weight of the tumours was measured after the animals were sacrificed.
The ability of compound 1 to inhibit renal cell carcinoma growth (see FIG. 4), to inhibit pancreatic carcinoma growth (FIG. 5), to inhibit large-cell lung carcinoma cell growth (FIG. 6), and to inhibit Glioblastoma cell growth (FIG. 7) was also tested following the general procedure as discussed above.

[2] = system: human colon carcinoma cells KM12; assay: XTT cell proliferation assay, KM12; format: cell-based; details: 5 days incubation, read-out: Antiproliferative activity, Colon KM12
Description: as §1, §2

[3] = system: colon carcinoma SW-620 cells; assay: Colon carcinoma (SW-620) xenograft model; format: in vivo, CD-1 female nude mice; details: vs vehicle-treated control, FIG. 3
Description: as §3
Similar tests were conducted with colon carcinoma KM-12 cells and colon carcinoma SW-620 cells.

[4] = system: human non-small cell lung cancer cells H460; assay: XTT cell proliferation assay, H460; format: cell-based; details: 5 days incubation, read-out: Antiproliferative activity, NSCLC H460
Description: as §1, §2

[5] = system: human pancreatic cells BXPC3; assay: XTT cell proliferation assay, BXPC3; format: cell-based; details: 5 days incubation, read-out: Antiproliferative activity, Pancreas BXPC3
Description: as §1, §2

[6] = system: human prostate cancer cell DU14; assay: XTT cell proliferation assay, DU14; format: cell-based; details: 5 days incubation, read-out: Antiproliferative activity, Pros. DU14
Description: as §1, §2

IC50 [1]: 0.21 µM | IC50 [2]: 0.33 µM | IC50 [4]: 0.16 µM | IC50 [5]: 0.18 µM | IC50 [6]: 0.17 µM
Compound: FC1(F)Oc2ccc(-c3nc4c5cccnc5c5ncccc5c4[nH]3)cc2O1 [Compound 1]
inhibition of tumour growth, as measured by tumour size (Glioblastoma (U87-MG)): able to inhibit tumour growth | inhibition of tumour growth, as measured by tumour size [3]: able to inhibit tumour growth

Reference: patent US9309247B2, “2-substituted imidazo[4,5-D]phenanthroline derivatives and their use in the treatment of cancer” (Aptose Biosciences Inc., priority 2013, dated 2016)
